Measurements from US6391870B2, “Pyrrolo [2,1-b][1,3]benzothiazepines with atypical antipsychotic activity” (Sigma-Tau Industrie Farmaceutiche Riunite S.p.A., priority 1998, dated 2002).
Like-named read-outs stand apart in the source and are kept apart here.

Experiments:
DA-2 receptors = target: T1, DA-2 receptors (Rattus norvegicus, UniProt P61169); test: [3H]Spiperone binding to DA-2 receptors (rat striatum); conditions: stereoselectivity between enantiomers
T1 construct: striatum for DA-1 and DA-2 receptors; from tissue; host or cells: rat striatum membranes

[1] = system: 5-MeO-DMT-induced head twitches in mouse; test: Antagonism of 5-MeO-DMT-induced head twitches in mouse; assay type: in vivo; conditions: s.c., 30 min before 5-MeO-DMT 10 mg/Kg s.c.
muscarinic receptors = assay type: binding; conditions: rat cortex, [3H]QNB; average of three determinations
DA-1 receptors = target: T2, DA-1 receptors (Rattus norvegicus, UniProt P18901); test: [3H]SCH 23390 binding to DA-1 receptors (rat striatum); conditions: for Ki: [3H]SCH 23390, average ± standard error, read-out: D1 affinity Ki
T2 construct: striatum for DA-1 and DA-2 receptors; from tissue; host or cells: rat striatum membranes

DA-3 receptors = target: T3, DA-3 receptors (Rattus norvegicus, UniProt P19020); test: [3H]-7-OH-DPAT binding to DA-3 receptors (rat olfactory tubercle); conditions: for Ki: [3H]-7-OH-DPAT, average ± standard error
T3 construct: olfactory tubercle for DA-3 receptors; from tissue; host or cells: rat olfactory tubercle membranes

catalepsy in rats = conditions: male, Wistar, rat, in vivo, sc

T3 sequence (P19020 whole entry): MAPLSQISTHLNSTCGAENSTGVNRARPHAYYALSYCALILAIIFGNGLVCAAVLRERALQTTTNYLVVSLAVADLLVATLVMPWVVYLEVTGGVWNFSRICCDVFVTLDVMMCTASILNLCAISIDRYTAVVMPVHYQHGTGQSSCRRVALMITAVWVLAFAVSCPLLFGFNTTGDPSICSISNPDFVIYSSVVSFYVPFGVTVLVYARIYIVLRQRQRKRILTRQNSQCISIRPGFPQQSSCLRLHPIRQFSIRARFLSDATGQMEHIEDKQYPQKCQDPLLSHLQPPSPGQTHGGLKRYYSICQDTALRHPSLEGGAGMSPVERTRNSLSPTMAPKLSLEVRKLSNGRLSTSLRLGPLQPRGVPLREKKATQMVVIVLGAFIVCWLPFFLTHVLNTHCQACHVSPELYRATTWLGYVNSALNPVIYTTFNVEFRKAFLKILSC
T2 sequence (P18901 whole entry): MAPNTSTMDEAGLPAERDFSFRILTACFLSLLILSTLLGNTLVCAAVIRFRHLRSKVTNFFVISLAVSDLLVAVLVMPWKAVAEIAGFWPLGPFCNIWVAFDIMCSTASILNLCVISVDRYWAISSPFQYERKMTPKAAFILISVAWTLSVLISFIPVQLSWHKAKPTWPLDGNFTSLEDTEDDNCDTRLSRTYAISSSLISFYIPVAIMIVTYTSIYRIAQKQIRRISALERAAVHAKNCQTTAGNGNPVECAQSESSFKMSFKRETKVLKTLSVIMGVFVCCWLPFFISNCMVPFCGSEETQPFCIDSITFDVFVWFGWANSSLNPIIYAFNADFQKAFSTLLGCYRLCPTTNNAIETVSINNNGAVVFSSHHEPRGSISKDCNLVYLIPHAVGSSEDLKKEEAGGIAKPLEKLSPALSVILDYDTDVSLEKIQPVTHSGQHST
T1 sequence (P61169 whole entry): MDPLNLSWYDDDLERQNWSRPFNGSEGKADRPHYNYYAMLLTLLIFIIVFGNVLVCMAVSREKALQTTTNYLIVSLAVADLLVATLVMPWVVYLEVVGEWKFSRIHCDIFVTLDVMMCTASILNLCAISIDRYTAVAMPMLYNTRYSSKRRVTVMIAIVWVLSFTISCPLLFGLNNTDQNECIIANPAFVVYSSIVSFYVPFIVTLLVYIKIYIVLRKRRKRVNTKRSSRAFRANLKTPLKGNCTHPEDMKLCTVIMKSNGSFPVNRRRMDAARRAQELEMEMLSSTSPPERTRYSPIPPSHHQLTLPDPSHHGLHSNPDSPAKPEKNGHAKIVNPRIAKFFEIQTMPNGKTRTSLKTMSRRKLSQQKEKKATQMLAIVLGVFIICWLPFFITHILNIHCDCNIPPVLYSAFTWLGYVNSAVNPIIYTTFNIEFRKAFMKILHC

| Compound | Times less affinity for the D2 receptor than the opposite enantiomer (DA-2 receptors) | Dosage that determines 50% of the Head-twitching inhibition induced by 5-MeO-DMT [1] | Ki (muscarinic receptors) | D1 pKi (DA-1 receptors) | Ki (DA-1 receptors) | D3 pKi (DA-3 receptors) | Ki (DA-3 receptors; read-out: D3 affinity Ki) | Time in minutes of insurgence of catalepsy in 100% of the animals (catalepsy in rats) | Ki (DA-3 receptors; D3 affinity Ki) |
| --- | --- | --- | --- | --- | --- | --- | --- | --- | --- |
| CN1CCN([C@@H]2Cc3ccccc3Sc3ccc(Cl)cc32)CC1 [R-(−)-Octoclothepin] | approximately 10 times | 0.089 mg/kg | 155 nM | 8.69 | 2.02 ± 0.17 nM | 7.68 | 20.9 nM | 120 min |  |
| CN1CCN([C@H]2Cc3ccccc3Sc3ccc(Cl)cc32)CC1 [S-(+)-Octoclothepin] |  |  | 749 nM | 8.71 | 1.97 ± 0.53 nM |  |  | 300 min | 0.75 nM |
| CN1CCN(C2Cn3cccc3Sc3ccc(F)cc32)CC1 (racemic) [ST1456, (±)-7-fluoro-9-(4-methylpiperazin-1-yl)-9,10-dihydropyrrolo[2,1-b][1,3]benzothiazepine] |  |  | 2220 nM |  |  |  |  |  |  |
| CN1CCN(C2Cn3cccc3Sc3ccc(Cl)cc32)CC1 (single isomer, unassigned; (+)) [ST1460, (+)-7-chloro-9-(4-methylpiperazin-1-yl)-9,10-dihydropyrrolo[2,1-b][1,3]benzothiazepine] |  |  | 286 nM |  |  |  |  |  |  |
| CN1CCN(C2Cn3cccc3Sc3ccc(Cl)cc32)CC1 (racemic) [ST1455, (±)-7-chloro-9-(4-methylpiperazin-1-yl)-9,10-dihydropyrrolo[2,1-b][1,3]benzothiazepine] |  |  | 418 nM |  |  |  |  |  |  |
| CN1CCN(C2Cn3cccc3Sc3ccc(Cl)cc32)CC1 (single isomer, unassigned) [ST1461] |  |  | 514 nM |  |  |  |  |  |  |
| CN1CCN(C2Cc3ccccc3Sc3ccc(Cl)cc32)CC1 (centres unmarked) [RS-Octoclothepin, 8-chloro-10-(4-methylpiperazino)-10,11-dihydrodibenzo[b,f]thiepin] |  |  | 434 nM | 8.64 | 2.28 ± 0.15 nM | 8.62 | 2.38 nM | 120 min |  |
